{
  "source": "patent US8012487B2",
  "about": "“Synthetic peptides and DNA sequences for treatment of multiple sclerosis” (priority 2001, dated 2011)",
  "key": {"[1]": {"test_system": "EAE induced with MBP, MOG or MBP/MOG combination", "conditions": "(PL/J×SJL/J) F1 mice, cited from earlier work"}, "[2]": {"test_system": "EAE induced by Y-MSPb-reactive line T-cells", "experiment": "EAE associated with multiple pathogenic autoreactivities induced by transfer of Y-MSPb-reactive line T-cells", "format": "in vivo, (C3H.SW×SJL/J)F1 mice", "conditions": "in PBS given daily i.p. from the day of T-cell transfer; FIG. 9B", "experimental": "Y-MSPb, the purified protein product of the synthetic Y-MSPb gene, disclosed in WO 01-31037, designed to encode tandemly arranged disease-relevant epitopes clusters of the encephalitogenic proteins MBP, PLP, MOG, and MOBP, was tested for its immunomodulatory effect on EAE associated with multiple pathogenic autoreactivities, upon tolerogenic administration, in the same way as described for Y-MSPa in WO 01-31037.\nLine T-cells were selected in vitro with Y-MSPb from lymph node cells (LNCs) of (C3H.SW×SJL/J)F1 mice immunized with Y-MSPb (containing encephalitogenic epitopes of MOG, MBP, PLP and MOBP) in CFA, and were analyzed after primary response (left panel) and after four cycles of selection (right panel) for their proliferative response to Y-MSPb, phMOG 34-56, phMOG 1-22, shMOG/E, PLP 139-151, shPLP/E, MBP 87-101 and shMBP/E (10 μ/ml). The proliferative response to purified protein derivative (PPD) (5 μ/ml) was analyzed as a measure of specificity. The line T cells are directed against each of the myelin autoantigens."}, "[3]": {"test_system": "EAE induced with MOG 37-52", "experiment": "EAE induced with MOG 37-52, treatment with MOG APLs", "format": "in vivo", "conditions": "C3H.SW mice; 400 μg in PBS i.v. on days 5, 7, 9 and 12 after encephalitogenic challenge; FIG. 8"}, "[4]": {"test_system": "lymph node cells", "experiment": "Ex vivo response to MOG 37-52 by lymph node cells isolated from treated mice", "format": "cell-based", "conditions": "cells from APL-treated C3H.SW mice"}, "[5]": {"test_system": "H-2^b haplotype mice (C3H.SW, C57BL)", "experiment": "Encephalitogenicity of T-cell responses elicited by APLs", "format": "in vivo", "conditions": "H-2^b mice; not shown", "source_text": "(§1) For EAE induced in H-2^b haplotype mice (C3H.SW, C57BL) by MOG 35-55 (SEQ ID NO: 234), we have defined residues 41 and 44 as crucial TCR contact residues for the interaction between the encephalitogenic nonameric core sequence MOG 40-48, found by molecular modelling studies to represent the preferred binding mode for MOG 35-55 to IA^b, and the TCR of H-2^b MOG-specific T-cells. APLs with non-conservative substitutions at either or both of these residues elicited T-cell responses which were not encephalitogenic (not shown). In vitro, these APLs inhibited the proliferation of T-cell clones to MOG 37-52, the minimal optimal stimulatory peptide. […] MOG35-55-specific T-cell line was raised from MOG35-55-immunized C3H.SW mice as described (Mendel et al., 1996). Cytokine assays were performed by ELISA according to PharMingen standard protocols."}, "[6]": {"test_system": "APL-specific T-cell lines", "experiment": "Cytokine profile of APL-specific T-cell lines (ELISA)", "format": "cell-based, mice", "conditions": "pilot studies, not shown", "source_text": "as §1"}, "[7]": {"test_system": "TCR", "experiment": "TCR signaling in MOG 37-52-reactive T-cell clones", "format": "cell-based, mice", "conditions": "peptide alone; not shown", "experimental": "Possible mechanisms by which the relevant APLs may inhibit MOG 37-52-reactive T-cell clones in vitro were tested by analyzing their effect on TCR signaling, as well as on cytokine secretion by the clones."}, "[8]": {"test_system": "chronic EAE induced with whole PLP", "conditions": "SJL/J mice; tolerization; cited from earlier work"}},
  "note": "Where no end group is shown, it is not given here.",
  "data": [
    {"substance": "MBPAc1-11: immunodominant encephalitogenic epitope within MBP (Ac-MGNHSGKRELS; UniProt P04370 1-11, looked up, fragment)", "values": [
      {"measurement": "MBP-induced EAE", "setting": "[1]", "result": "suppresses"},
      {"measurement": "MOG-induced EAE", "setting": "[1]", "result": "no effect"},
      {"measurement": "clinical severity of EAE induced with a combination of MBP and MOG", "setting": "[1]; tolerogenic administration", "result": "marginal therapeutic effect"}
    ]},
    {"substance": "MOG 37-52: native MOG peptide, the minimal optimal stimulatory peptide (VGWYRPPFSRVVHLYR; Synthetic peptide containing sequence 37-52 of MOG.)", "values": [
      {"measurement": "EAE induced by Y-MSPb-reactive line T-cells: disease incidence or severity", "setting": "[2]", "result": "no significant effect"}
    ]},
    {"substance": "MOG 37-A44-52: APL of MOG 37-52 wherein F44 is substituted by A44 (VGWYRPPASRVVHLYR; The peptide of SEQ ID NO231 in which the residue at position 8 was replaced by Ala.)", "values": [
      {"measurement": "severity and incidence of EAE induced with the native MOG 37-52", "setting": "[3]", "result": "marked decrease"},
      {"measurement": "response ex vivo to MOG 37-52 by lymph node cells isolated from treated mice", "setting": "[4]", "result": "markedly reduced response"},
      {"measurement": "encephalitogenicity of the APL / of the T-cell responses it elicits", "setting": "[5]", "result": "non-encephalitogenicity"},
      {"measurement": "cytokine profile of APL-specific T-cell lines", "setting": "[6]", "result": "elicits Th2 T-cells"},
      {"measurement": "TCR signaling in the T-cell clones", "setting": "[7]", "result": "induces partial TCR signaling"}
    ]},
    {"substance": "MOG 37-Q41-52: MOG 37-52 altered peptide ligand substituted at TCR contact residue 41 (VGWYQPPFSRVVHLYR; The peptide of SEQ ID NO231 in which the residue at position 5 was replaced by Gln.)", "values": [
      {"measurement": "severity and incidence of EAE induced with the native MOG 37-52", "setting": "[3]", "result": "marked decrease"},
      {"measurement": "response ex vivo to MOG 37-52 by lymph node cells isolated from treated mice", "setting": "[4]", "result": "markedly reduced response"}
    ]},
    {"substance": "PLP139-151: major encephalitogenic peptide of PLP (CHCLGKWLGHPDK; UniProt P60202 139-151, looked up, fragment)", "values": [
      {"measurement": "EAE induced by Y-MSPb-reactive line T-cells: disease incidence or severity", "setting": "[2]", "result": "no significant effect"},
      {"measurement": "chronic EAE induced with whole PLP: acute phase and relapses", "setting": "[8]", "result": "abrogated the primary acute phase, but not subsequent relapses"}
    ]}
  ]
}
